In patent publication EP0469084B1, “HEPATOSPECIFIC INSULIN ANALOGUES” (MOUNT SINAI SCHOOL OF MEDICINE OF THE CITY UNIVERSITY OF …, priority 1989, dated 1995):
Each block holds one substance with its values, some of them ahead of it.

How the values were obtained:
[1] = from U.S. Patent 4,992,417 and PCT/US88/02289; cited from earlier work
[2] = test system: insulin receptors; experiment: Insulin receptor binding assay (inhibition of specific 125I-insulin binding, rat liver plasma membrane fraction); details: concentration ratio of unlabelled insulin to analogue required to inhibit 50% of specific 125I-insulin binding; rat liver plasma membranes, 45 min at 24°C, pH 7.4
Description: Although insulin analogues, in general, maintain some residual insulin activity, the potency of such analogues is usually only a fraction of that of natural insulins. The potency of human, bovine and porcine insulins in USP standards is about 25-26 IU (international units) per mg protein. […]
Briefly, triplicate 0.2ml incubations contained ¹²⁵I-insulin, 3 x 10⁻¹⁰M, unlabelled insulin or [Trp¹⁴-A] insulin prepared as in Example 1, and plasma membranes (20-40 »g of protein) in 0.1 M sodium phosphate, pH 7.4, containing 0.6% fraction V bovine serum albumin. […] The filters were washed twice with the ice cold buffer, dried, and then radioactivity was counted in a scintillation counter using Filtron-X®. […]

[3] = test system: rat adipocytes; experiment: Lipogenesis assay (conversion of [3-3H] glucose into lipids in isolated adipocytes); assay type: cell-based; details: for potency in lipogenesis compared to the natural hormone: concentration ratio of bovine insulin to analogue producing 50% of maximum stimulation of lipogenesis
Source text: (§1) Although insulin analogues, in general, maintain some residual insulin activity, the potency of such analogues is usually only a fraction of that of natural insulins. The potency of human, bovine and porcine insulins in USP standards is about 25-26 IU (international units) per mg protein. Standard assay for measuring insulin potency include inter alia (1) insulin radioreceptorassays, in which the relative potency of an insulin is defined as the ratio of insulin to insulin analogue required to displace 50% of ¹²⁵I-insulin specifically bound to insulin receptors present on cell membranes, e.g. a rat liver plasma membrane fraction, isolated rat adipocytes, or isolated rat hepatocytes; (2) lipogenesis assays, performed e.g. with rat adipocytes, in which relative insulin potency is defined as the ratio of insulin to insulin analogue required to achieve 50% of the maximum conversion of [3-³H] glucose into organic-extractable material (i.e. lipids); (3) glucose oxidation assays in isolated fat cells in which the relative potency of the insulin analogue is defined as the ratio of insulin to insulin analogue to achieve 50% of the maximum conversion of glucose-1-[¹⁴C] into [¹⁴CO₂]; (4) insulin radioimmunoassays which can determine the immunogenicity of insulin analogues by measuring the effectiveness by which insulin or an insulin analogue competes with ¹²⁵I-insulin in binding to specific anti-insulin antibodies; (5) inhibition of gluconeogenesis performed on confluent monolayers of a well differentiated hepatoma cell line (FAO) in which inhibition of glucose secretion into the medium is determined as a function of the concentration of insulin or insulin analogue.
In this Example the materials used and the analytical procedures followed are those found in Kitagawa et al., Biochemistry, 23: 1405-1413 (1984). ¹²⁵I-insulin for receptor binding studies and [3-³H] glucose for lipogenesis were obtained from DuPont NEN Research Products. Cellulose acetate membrane filters, 0.2 »m pore size, were products of Sartorius. Glass-fiber filters, Type GFC, were from Whatman. Collagenase, Type II crude, was obtained from Worthington. […]
These assays measured the ability of the insulin analogue as compared to bovine insulin to convert [3-³H] glucose into lipids.
Adipocytes were prepared by incubating epididymal and perirenal fat pads obtained from male rats weighing 200-300 g with 1.0 mg/ml collagenase for 60 min at 37°C, followed by filtration through gauze and then through fine-mesh silk. […] Samples were extracted with 10 ml of Soluscint-0® for 30 min at room temperature before counting the radioactivity in a scintillation counter. […] Zero and 100% stimulation of lipogenesis were defined as radioactivity observed in the absence and presence, respectively, of 9.1 x 10⁻¹⁰M insulin (5.5 ng/ml). […]

[4] = test system: FAO cells; experiment: Inhibition of gluconeogenesis assay (glucose secretion by confluent hepatoma cell monolayers); assay type: cell-based; details: for potency in inhibiting gluconeogenesis relative to the natural hormone: ratio of concentration of insulin to analogue producing half-maximal inhibition of glucose production, FAO hepatoma cells
Source text: as §1
This assay was carried out on confluent monolayers of a well differentiated hepatoma cell line (Lauris et al. Endocrinology 118:2519-2524 (1986)) in which glucose production was monitored with a commercial glucose oxidase kit (Sigma kit no. 510-A, Sigma Technical Bulletin 510, 1983). Inhibition of glucose secretion into the medium was determined as a function of the concentration of insulin or insulin analogue, and the relative potency of the analogue was defined as the ratio of the concentration of insulin to analogue required to produce half-maximal inhibition of glucose production. The cell culture and glucose production was carried out as described by Lauris et al., supra.
The potency of the synthetic insulin in inhibiting gluconeogenesis is calculated to be about 90% relative to the natural hormone.

[5] = from W. Danho et al., Chemical Abstracts 94: 47733x; cited from earlier work
[6] = compared with insulin, FAO cells

Substance: [10-Aspartic Acid-B] human insulin
potency relative to natural insulins [1]: 4 to 5 times

potency of that of the natural hormone (relative potency, receptor binding) [2]: about 60%
Substance: [Trp¹⁴-A] insulin
concentration of agonist producing half-maximal stimulation of lipogenesis ([3]; compared with bovine insulin): about twice the concentration of agonist
maximum stimulation of lipogenesis ([3]; compared with bovine insulin): same maximum stimulation of lipogenesis
potency in lipogenesis compared to the natural hormone [3]: about 60%
potency in lipogenesis compared to the natural hormone ([3]; listed as synthetic insulin): approximately 60%
concentration of agonist producing half-maximal inhibition of gluconeogenesis [4, 6]: approximately the same concentration of agonist
maximum inhibition of gluconeogenesis [4, 6]: same maximum inhibition of gluconeogenesis
potency in inhibiting gluconeogenesis relative to the natural hormone [4]: 90%
potency in inhibiting gluconeogenesis relative to the natural hormone ([4]; listed as [Trp ¹⁴-A] insulin): about 90%

Substance: porcine A14-phenylalanine insulin
biological activity compared with native insulin [5]: virtually the same biological activity as native insulin
